Values of other authors, collected in US7105698B2, “Process for the separation of R(-)-and S(+)-5-[2-[[2-(2-ethoxyphenoxy)ethyl]amino]propyl]-2- methoxybenzenesulfonamide” (Ragactives, S.L., priority 2002, dated 2006).

Settings: ratio R(−)-I versus S(+)-I; prior studies

CCOc1ccccc1OCCN[C@H](C)Cc1ccc(OC)c(S(N)(=O)=O)c1 [R(−)-I, R(−)-5-[2-[[2-(2-ethoxyphenoxy)ethyl]amino]propyl]-2-methoxybenzenesulfonamide]
pharmacological action of R(−)-I relative to its S(+)-I enantiomer: up to 320 times
